Measured values: patent US20250206761A1, “HALOINDOLE MACROCYCLIC COMPOUNDS FOR THE TREATMENT OF CANCER” (Hoffmann-La Roche Inc., priority 2022, published 2025)
pIC50: −log10 of the molar value.

What was measured:
[1] = tested on: phosphorylation of ERK, KRAS G12D in AGS cells; test: pERK inhibition assay, KRAS G12D; type: cell-based, human; details: Homo sapiens, 4 hours
Method: This assay is to measure the ability of test compounds in inhibiting the phosphorylation of ERK, the downstream signaling of KRAS G12C in NCJ-H358 cells, KRAS G12D in AGS cells, and KRAS G12V in SW620. NCJ-H358 (ATCC-CRL5807) cells, AGS (ATCC-CRL-1739) cells, SW620 (ATCC-CCL-227) cells were all grown and maintained using RPMI-1640 medium (Thermo Fisher Scientific) with 10% fetal bovine serum and 1% penicillin/streptomycin. On the day prior to compound addition, cells were plated in tissue culture-treated 96 well plates (Corning-3699) at a density of 30,000 cell/well, 20,000 cell/well, 30,000 cell/well for NCJ-H358, AGS and SW620 respectively, and allowed for attachment overnight. Diluted compounds were then added in a final concentration of 0.5% DMSO. After 4 hours of incubation, the medium was removed, 100 μL of 4% formaldehyde was added, and the assay plates were incubated at room temperature for 20 minutes. The plates were then washed once with phosphate buffered saline (PBS), and permeabilized with 100 μL of chilled methanol for 10 minutes. Non-specific antibody binding to the plates was blocked using 50 μL 1×BSA blocking buffer (Thermo-37520, 10-fold dilution by Phosphate-Buffered Saline Tween (PBST) for at least 1 hour at room temperature.
The amount of phosphor-ERK was determined using an antibody specific for phosphorylated form of ERK. Primary antibody (pERK, CST-4370, Cell Signaling Technology) was diluted 1:300 in blocking buffer, with 50 μL aliquoted to each well, and incubated overnight at 4′° C. Cells was washed five times for 5 minutes with PBST. Secondary antibody ([…] anti-rabbit IgG, CST-7074, Cell Signaling Technology) was diluted 1:1000 in blocking buffer, and 50 μL was added to each well and incubated 1-2 hrs at room temperature. Cells was washed 5 times for 5 minutes with PBST, 100 μL TMB ELISA substrate (abcam-ab171523) were added and gently shake for 20 minutes. 50 μL stop solution (abcam-ab171529) were added, and then read the signal (OD450) by EnVision.
IC50 was determined by fitting a 4-parameter sigmoidal concentration response model.

[2] = tested on: phosphorylation of ERK, KRAS G12V in SW620; test: pERK inhibition assay, KRAS G12V; type: cell-based, human; details: Homo sapiens, SW-620, SW620, 4 hours
How it was run: (§1)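 Read-out is OD450 from a TMB colorimetric cell ELISA using a phospho-ERK-specific antibody and HRP-linked secondary. Compounds were incubated with the cells for 4 hours at 0.5% DMSO before fixation and permeabilization. IC50 values come from 4-parameter concentration-response fitting.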

[3] = tested on: phosphorylation of ERK, KRAS G12C in NCJ-H358 cells; test: pERK inhibition assay, KRAS G12C; type: cell-based, human; details: Homo sapiens, 4 hours
How it was run: as §1

[4] = tested on: NCI-H358 (ATCC-CRL5807) cells; test: Cell viability assay, G12C (NCI-H358); type: cell-based, human; details: Homo sapiens; KRAS cell viability, NCI-H358, 72 hrs, Cell Counting Kit-8
How it was run: (§2)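 Cells were seeded at 5,000 cells/well (NCI-H358) or 2,000 cells/well (AGS, SW620), incubated overnight, then treated with compounds in 0.5% DMSO final for 72 hrs. CCK-8 was added and OD450 minus OD650 read after 2 hrs; IC50 came from a 4-parameter sigmoidal fit.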

[5] = tested on: AGS (ATCC-CRL-1739) cells; test: Cell viability assay, G12D (AGS); type: cell-based, human; details: Homo sapiens, KRAS cell viability, 72 hrs, Cell Counting Kit-8
How it was run: as §2

SW620 (ATCC-CCL-227) = test: Cell viability assay, G12V (SW620); type: cell-based, human; details: Homo sapiens, SW-620; KRAS cell viability, SW620, 72 hrs, Cell Counting Kit-8
How it was run: as §2

[6] = target: KRAS G12V binding to BRAF (Homo sapiens (Human), UniProt P01116+P62937, G12V); test: KRAS-BRAF with CYPA (500 nM) interaction assay (TR-FRET), G12V; type: biochemical
How it was run: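 A TR-FRET assay measured how compound, in the presence of CYPA, disrupts binding of GMPPNP-loaded 6His-KRAS G12V to BRAF. The buffer contained 25 mM HEPES PH=7.4, 0.002% Tween20, 0.1% BSA, 100 mM NaCl, 5 mM MgCl2 and 10 μM GMPPNP. Compounds ran as a 16-point 3-fold dilution series from 10 μM for 3 hours.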

[7] = target: KRAS G12D binding to BRAF (Homo sapiens (Human), UniProt P01116+P62937, G12D); test: KRAS-BRAF with CYPA (500 nM) interaction assay (TR-FRET), G12D; type: biochemical
KRAS G12C-BRAF complex = KRAS G12C-BRAF complex (Homo sapiens (Human), UniProt P01116+P62937, G12C); test: KRAS-BRAF with CYPA (500 nM) interaction assay (TR-FRET), G12C; type: biochemical
KRAS G12C-BRAF complex, sequence (P01116-2 other isoform, or with tags, fused parts or gaps G12C): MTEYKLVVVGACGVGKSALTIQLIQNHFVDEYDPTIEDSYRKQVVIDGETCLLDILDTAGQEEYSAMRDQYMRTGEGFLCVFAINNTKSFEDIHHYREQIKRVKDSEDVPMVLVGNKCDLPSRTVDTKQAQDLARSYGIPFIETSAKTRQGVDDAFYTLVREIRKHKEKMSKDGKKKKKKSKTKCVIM
KRAS G12C-BRAF complex, sequence (P62937 whole entry): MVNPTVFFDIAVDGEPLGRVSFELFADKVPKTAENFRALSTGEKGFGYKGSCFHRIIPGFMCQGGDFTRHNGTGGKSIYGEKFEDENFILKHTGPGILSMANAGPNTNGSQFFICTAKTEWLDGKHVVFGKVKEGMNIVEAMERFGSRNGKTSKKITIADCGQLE

KRAS G12V binding to BRAF, sequence (P01116-2 other isoform, or with tags, fused parts or gaps G12V): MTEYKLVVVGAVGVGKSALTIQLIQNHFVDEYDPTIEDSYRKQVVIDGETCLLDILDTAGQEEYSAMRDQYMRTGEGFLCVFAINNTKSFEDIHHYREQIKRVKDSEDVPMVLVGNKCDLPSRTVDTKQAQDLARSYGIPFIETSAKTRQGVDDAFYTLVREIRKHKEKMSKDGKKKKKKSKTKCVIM
KRAS G12V binding to BRAF, sequence (P62937 whole entry): as the sequence (P62937 whole entry) above
KRAS G12D binding to BRAF, sequence (P01116-2 other isoform, or with tags, fused parts or gaps G12D): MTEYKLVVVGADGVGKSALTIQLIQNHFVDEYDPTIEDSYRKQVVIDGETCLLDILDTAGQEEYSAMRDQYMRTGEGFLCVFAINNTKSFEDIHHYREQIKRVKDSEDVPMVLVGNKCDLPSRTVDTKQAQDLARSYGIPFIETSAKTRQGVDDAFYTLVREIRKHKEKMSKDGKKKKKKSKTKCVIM
KRAS G12D binding to BRAF, sequence (P62937 whole entry): as the sequence (P62937 whole entry) above

Structure (SMILES) | pIC50 [4] | pIC50 [1] | pIC50 [2] | pIC50 [3] | pIC50 [5] | pIC50 (SW620 (ATCC-CCL-227)) | pIC50 [6] | pIC50 [7] | pIC50 (KRAS G12C-BRAF complex)
CO[C@@H](C)c1ncc(N2CCN(C)CC2)cc1-c1c2c3cc(c(F)cc3n1CC(F)(F)F)-c1csc(n1)C[C@H](NC(=O)[C@H](C(C)C)N(C)C(=O)[C@H]1CCN(C(=O)[C@H](F)Cl)C1)C(=O)N1CCC[C@H](N1)C(=O)OCC(C)(C)C2 (atropisomer, axis not shown; (M)) [Example 2, (3S)-1-[(2R)-2-chloro-2-fluoro-acetyl]-N-[(1S)-1-[[(7S,13S)-24-fluoro-(20M)-20-[2-[(1S)-1-methoxyethyl]-5-(4-methylpiperazin-1-yl)-3-pyridyl]-17,17-dimethyl-8,14-dioxo-21-(2,2,2-trifluoroethyl)-15-oxa-4-thia-9,21,27,28-tetrazapentacyclo[17.5.2.1^2,5.1^9,13.0^22,26]octacosa-1(25),2,5(28),19,22(26),23-hexaen-7-yl]carbamoyl]-2-methyl-propyl]-N-methyl-pyrrolidine-3-carboxamide] | 8.70 | 7.42 | 7.70 | 8.70 | 6.09 | 6.76 | 5.73 | 5.40 | 7.05
CO[C@@H](C)c1ncc(N2CCN(CC(F)(F)F)CC2)cc1-c1c2c3cc(c(F)cc3n1CC(F)(F)F)-c1csc(n1)C[C@H](NC(=O)[C@H](C(C)C)N(C)C(=O)[C@H]1CCN(C(=O)[C@H](F)Cl)C1)C(=O)N1CCC[C@H](N1)C(=O)OCC(C)(C)C2 (atropisomer, axis not shown; (M)) [Example 26, (3S)-1-[(2R)-2-chloro-2-fluoro-acetyl]-N-[(1S)-1-[[(7S,13S)-24-fluoro-(20M)-20-[2-[(1S)-1-methoxyethyl]-5-[4-(2,2,2-trifluoroethyl)piperazin-1-yl]-3-pyridyl]-17,17-dimethyl-8,14-dioxo-21-(2,2,2-trifluoroethyl)-15-oxa-4-thia-9,21,27,28-tetrazapentacyclo[17.5.2.1^2,5.1^9,13.0^22,26]octacosa-1(25),2,5(28),19,22(26),23-hexaen-7-yl]carbamoyl]-2-methyl-propyl]-N-methyl-pyrrolidine-3-carboxamide] | 9.00 | 7.82 | 7.85 | 8.15 | 6.59 | 7.47 | 6.02 | < 5.00 | 7.34
CO[C@@H](C)c1ncc(N2CCN(C)CC2)cc1-c1c2c3c(F)c(ccc3n1CC(F)(F)F)-c1cc(O)cc(c1)C[C@H](NC(=O)[C@H](C(C)C)N(C)C(=O)[C@H]1CCN(C(=O)[C@H](F)Cl)C1)C(=O)N1CCC[C@H](N1)C(=O)OCC(C)(C)C2 (atropisomer, axis not shown; (M)) [Example 27, (3S)-1-[(2R)-2-chloro-2-fluoro-acetyl]-N-[(1S)-1-[[(8S,14S)-26-fluoro-4-hydroxy-(21M)-21-[2-[(1S)-1-methoxyethyl]-5-(4-methylpiperazin-1-yl)-3-pyridyl]-18,18-dimethyl-9,15-dioxo-22-(2,2,2-trifluoroethyl)-16-oxa-10,22,28-triazapentacyclo[18.5.2.1^2,6.1^10,14.0^23,27]nonacosa-1(26),2,4,6(29),20,23(27),24-heptaen-8-yl]carbamoyl]-2-methyl-propyl]-N-methyl-pyrrolidine-3-carboxamide] |  | 7.96 | 8.00 | 8.52 | 7.43 | 7.51 | 8.52 | 8.15 | 8.70

Second part, led by results:

pIC50 [4] | Structure (SMILES) | pIC50 [1] | pIC50 [2] | pIC50 [3] | pIC50 [5] | pIC50 (SW620 (ATCC-CCL-227)) | pIC50 [6] | pIC50 [7] | pIC50 (KRAS G12C-BRAF complex)
8.30 | CO[C@@H](C)c1ncc(N2CCN(C)CC2)cc1-c1c2c3c(F)c(ccc3n1CC(F)(F)F)-c1csc(n1)C[C@H](NC(=O)[C@H](C(C)C)N(C)C(=O)[C@H]1CCN(C(=O)[C@H](F)Cl)C1)C(=O)N1CCC[C@H](N1)C(=O)OCC(C)(C)C2 (atropisomer, axis not shown; (M)) [Example 1, (3S)-1-[(2R)-2-chloro-2-fluoro-acetyl]-N-[(1S)-1-[[(7S,13S)-25-fluoro-(20M)-20-[2-[(1S)-1-methoxyethyl]-5-(4-methylpiperazin-1-yl)-3-pyridyl]-17,17-dimethyl-8,14-dioxo-21-(2,2,2-trifluoroethyl)-15-oxa-4-thia-9,21,27,28-tetrazapentacyclo[17.5.2.1^2,5.1^9,13.0^22,26]octacosa-1(25),2,5(28),19,22(26),23-hexaen-7-yl]carbamoyl]-2-methyl-propyl]-N-methyl-pyrrolidine-3-carboxamide] | 6.86 | 7.26 | 8.15 | 6.41 | 7.04 |  |  | 
> 9.00 | CCn1c(-c2cc(N3CCN(C)CC3)cnc2[C@H](C)OC)c2c3cc(c(F)cc31)-c1csc(n1)C[C@H](NC(=O)[C@H](C(C)C)N1CC[C@@]3(CCN(C(=O)[C@H](F)Cl)C3)C1=O)C(=O)N1CCC[C@H](N1)C(=O)OCC(C)(C)C2 (atropisomer, axis not shown; (M)) [Example 30, (2S)-2-[(5R)-7-[(2R)-2-chloro-2-fluoro-acetyl]-1-oxo-2,7-diazaspiro[4.4]nonan-2-yl]-N-[(7S,13S)-21-ethyl-24-fluoro-(20M)-20-[2-[(1S)-1-methoxyethyl]-5-(4-methylpiperazin-1-yl)-3-pyridyl]-17,17-dimethyl-8,14-dioxo-15-oxa-4-thia-9,21,27,28-tetrazapentacyclo[17.5.2.1^2,5.1^9,13.0^22,26]octacosa-1(25),2,5(28),19,22(26),23-hexaen-7-yl]-3-methyl-butanamide] | 7.68 | 7.00 | 8.70 | 6.36 | 5.98 | < 5.00 | < 5.00 | 7.42
7.35 | CCn1c(-c2cccnc2COC)c2c3cc(ccc31)-c1cc(O)cc(c1)C[C@H](NC(=O)[C@H](C(C)C)N(C)C(=O)C1CN(C(=O)[C@H](F)Cl)C1)C(=O)N1CCC[C@H](N1)C(=O)OCC(C)(C)C2 [RM461-A, reference compound] | < 5.00 |  | 7.31 | 5.10 |  | 5.22 | < 5.00 | 7.57
